Results: patent publication US9079866B2, “Flap modulators” (JANSSEN PHARMACEUTICA NV, priority 2013, dated 2015)
Where a name gives a salt, the structure may show the parent alone.

What follows are compounds tested against human FLAP (Homo sapiens (Human), UniProt P20292) (assay: FLAP binding assay (HTRF format)). Conditions: human FLAP wild type, HTRF format; average of two plates, duplicates.
Protocol: The ability of the compounds of the present invention to treat a FLAP-mediated disease and/or disorder, or associated symptoms or complications thereof, was determined using the following procedures. Binding assay data represent the average value obtained from two different assay plates, with samples run in duplicate on each plate. Human whole blood assay data represent a single replicate on an assay plate using whole blood from at least one healthy donor.
Data are expressed as a HTRF ratio.

human FLAP, sequence (P20292 whole entry): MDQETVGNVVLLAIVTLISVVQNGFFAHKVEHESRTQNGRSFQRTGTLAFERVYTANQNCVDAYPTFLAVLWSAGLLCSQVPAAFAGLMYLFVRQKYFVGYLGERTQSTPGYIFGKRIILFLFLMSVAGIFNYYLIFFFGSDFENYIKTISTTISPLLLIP

Row | SMILES | Ki [nM]
1 | Nc1ncc(-c2ccc(-c3ccccc3S(N)(=O)=O)cc2F)cn1 [Example 302, 4′-(2-Aminopyrimidin-5-yl)-3′-fluorobiphenyl-2-sulfonamide trifluoroacetic acid salt] | 2500
2 | CC(C)(C)S(=O)(=O)c1ccccc1-c1ccc(-c2cnc(N)nc2)c(F)c1 [Example 293, 5-[2′-(tert-Butylsulfonyl)-3-fluorobiphenyl-4-yl]pyrimidin-2-amine trifluoroacetic acid salt] | > 10000
3 | CN1C(C)(C)CC(NS(=O)(=O)c2ccccc2-c2ccc(-c3cnc(N)cn3)c(F)c2)CC1(C)C [Example 30, 4′-(5-Aminopyrazin-2-yl)-3′-fluoro-N-(1,2,2,6,6-pentamethylpiperidin-4-yl)biphenyl-2-sulfonamide] | 95
4 | Nc1ncc(-c2ccc(-c3ccccc3S(=O)(=O)N3CCNC(=O)C3)cc2F)cn1 [Example 306, 4-{[4′-(2-Aminopyrimidin-5-yl)-3′-fluorobiphenyl-2-yl]sulfonyl}piperazin-2-one trifluoroacetic acid salt] | 397
5 | C[C@@H](CO)NS(=O)(=O)c1ccccc1-c1ccc(-c2ccc(N)nc2)c(F)c1 [Example 347, (S)-4′-(6-Aminopyridin-3-yl)-3′-fluoro-N-(1-hydroxypropan-2-yl)-[1,1′-biphenyl]-2-sulfonamide] | 77

Same assay, conditions: read-out: FLAP Binding wild type HTRF Ki

Row | SMILES | Ki [nM]
6 | Nc1ncc(-c2ccc(-c3cccnc3S(=O)(=O)C3CCNCC3)cc2F)cn1 [Example 827, 5-{2-Fluoro-4-[2-(piperidin-4-ylsulfonyl)pyridin-3-yl]phenyl}pyrimidin-2-amine formic acid salt] | > 10000
7 | Nc1ncc(-c2ccc(-c3ccccc3S(=O)(=O)c3ncncc3N)cc2F)cn1 [Example 337, 5-{2′-[(5-Aminopyrimidin-4-yl)sulfonyl]-3-fluorobiphenyl-4-yl}pyrimidin-2-amine hydrochloride] | 2500

Same assay, conditions: wild type FLAP, HTRF format

Row | SMILES | Ki [nM]
8 | Nc1ncc(-c2ccc(-c3ccccc3C(=O)N3CCOCC3)cc2F)cn1 [Example 499, 5-[3-Fluoro-2′-(morpholin-4-ylcarbonyl)biphenyl-4-yl]pyrimidin-2-amine] | 433
9 | Nc1cnc(-c2ccc(-c3ccccc3OCCO)cc2F)cn1 [Example 628, 2-{[4′-(5-Aminopyrazin-2-yl)-3′-fluorobiphenyl-2-yl]oxy}ethanol] | 336
10 | Nc1ncc(-c2ccc(-c3ccccc3C(=O)N3CC[C@H](O)C3)cc2F)cn1 [Example 772, (3S)-1-{[4′-(2-Aminopyrimidin-5-yl)-3′-fluorobiphenyl-2-yl]carbonyl}pyrrolidin-3-ol] | > 10000
11 | Nc1ncc(-c2ccc(-c3ccccc3C(=O)N3CCC[C@H](O)C3)cc2F)cn1 [Example 767, (3S)-1-{[4′-(2-Aminopyrimidin-5-yl)-3′-fluorobiphenyl-2-yl]carbonyl}piperidin-3-ol] | > 10000
12 | Nc1ncc(-c2ccc(-c3ccccc3C(=O)N3CCOC(C(F)(F)F)C3)cc2F)cn1 (racemic) [Example 766, racemic 5-(3-Fluoro-2′-{[2-(trifluoromethyl)morpholin-4-yl]carbonyl}biphenyl-4-yl)pyrimidin-2-amine] | 1910
13 | CC(C)(C)NS(=O)(=O)c1ccccc1-c1ccc(-c2cn3cc(C#N)ccc3n2)c(F)c1 [Example 585, N-tert-Butyl-4′-(6-cyanoimidazo[1,2-a]pyridin-2-yl)-3′-fluorobiphenyl-2-sulfonamide] | > 10000
14 | NC(=O)Nc1ccccc1-c1ccc(-c2cnc(N)cn2)c(F)c1 [Example 460, 1-[4′-(5-Aminopyrazin-2-yl)-3′-fluorobiphenyl-2-yl]u rea] | > 10000
15 | C[C@@H](CO)NC(=O)c1ccccc1-c1ccc(-c2cnc(N)cn2)c(F)c1 [Example 513, 4′-(5-Aminopyrazin-2-yl)-3′-fluoro-N-[(1S)-2-hydroxy-1-methylethyl]biphenyl-2-carboxamide] | > 10000
16 | CS(=O)(=O)Nc1ccccc1-c1ccc(-c2ccc(N)nc2)c(F)c1 [Example 659, N-(4′-(6-Aminopyridin-3-yl)-3′-fluoro-[1,1′-biphenyl]-2-yl)methanesulfonamide] | ~750
17 | Nc1cnc(-c2ccc(-c3ccccc3F)cc2F)cn1 [Example 468, 5-(2′,3-Difluorobiphenyl-4-yl)pyrazin-2-amine] | 620
18 | COCCCS(=O)(=O)c1ncccc1-c1ccc(-c2cnc(N)nc2)c(F)c1 [Example 817, 5-(2-Fluoro-4-(2-((3-methoxypropyl)sulfonyl)pyridine-3-yl)phenyl)pyrimidin-2-amine hydrogen chloride salt] | 463
19 | CNC(=O)c1ccccc1-c1ccc(-c2cnc(N)cn2)c(F)c1 [Example 510, 4′-(5-Aminopyrazin-2-yl)-3′-fluoro-N-methylbiphenyl-2-carboxamide] | 1940
20 | CNS(=O)(=O)c1ccccc1-c1ccc(-c2ccc(N)nc2)c(F)c1 [Example 661, 4′-(6-Aminopyridin-3-yl)-3′-fluoro-N-methyl-[1,1′-biphenyl]-2-sulfonamide] | ~2490
21 | Nc1ncc(-c2ccc(-c3ccccc3Oc3ncccn3)cn2)cn1 [Example 566, 5-{5-[2-(Pyrimidin-2-yloxy)phenyl]pyridin-2-yl}pyrimidin-2-amine] | > 10000
22 | CC(C)(C)NS(=O)(=O)c1ccccc1-c1ccc(-c2cn3cc(C(N)=O)ccc3n2)c(F)c1 [Example 582, 2-[2′-(tert-Butylsulfamoyl)-3-fluorobiphenyl-4-yl]imidazo[1,2-a]pyridine-6-carboxamide] | > 10000
23 | COc1ccccc1-c1ccc(-c2cnc(N)nc2)nc1 [Example 678, 5-[5-(2-Methoxyphenyl)pyridin-2-yl]pyrimidin-2-amine] | > 10000
24 | Nc1ncc(-c2ccc(-c3ccccc3C(=O)NCCO)cc2F)cn1 [Example 761, 4′-(2-Aminopyrimidin-5-yl)-3′-fluoro-N-(2-hydroxyethyl)biphenyl-2-carboxamide] | > 10000
25 | Nc1cnc(-c2ccc(-c3cccnc3N3CCCC3)cc2F)cn1 [Example 859, 5-[2-Fluoro-4-(2-pyrrolidin-1-ylpyridin-3-yl)phenyl]pyrazin-2-amine] | ~1250
26 | Nc1cnc(-c2ccc(-c3ccccc3N3CCNC3=O)cc2F)cn1 [Example 702, 1-(4′-(5-Aminopyrazin-2-yl)-3′-fluoro-[1,1′-biphenyl]-2-yl)imidazolidin-2-one] | ~304
27 | CC(C)(C)NS(=O)(=O)c1ccccc1-c1ccc(-c2cnc(N)c(C(=O)O)n2)c(F)c1 [Example 598, 3-Amino-6-[2′-(tert-butylsulfamoyl)-3-fluorobiphenyl-4-yl]pyrazine-2-carboxylic acid] | > 10000
28 | Nc1ncc(-c2ccc(-c3cccnc3N)cc2F)cn1 [Example 409, 5-[4-(2-Aminopyridin-3-yl)-2-fluorophenyl]pyrimidin-2-amine] | > 10000
29 | Nc1cnc(-c2ccc(-c3cc(C(F)(F)F)ccc3-c3cnc(N)nc3)cc2F)cn1 [Example 845, 5-[4′-(5-Aminopyrazin-2-yl)-3′-fluoro-5-(trifluoromethyl)biphenyl-2-yl]pyrimidin-2-amine] | > 10000
30 | C[S+]([O-])c1ccccc1-c1ccc(-c2cnc(N)cn2)c(F)c1 (racemic) [Example 700, racemic 5-[3-Fluoro-2′-(methylsulfinyl)biphenyl-4-yl]pyrazin-2-amine] | > 10000
